Measurements taken from PMC9669016, “First-in-human phase Ia study of the PI3Kα inhibitor CYH33 in patients with solid tumors” (Nature Communications, 2022).

Test system: patients with advanced solid tumors
Test: Phase Ia safety, tolerability, DLT/MTD (TRAEs graded by NCI-CTCAE v4.03)
Assay type: in vivo
Description: This is a phase I clinical study (ClinicalTrials.gov identifier: NCT03544905), including a phase Ia study of oral CYH33 monotherapy in patients with advanced solid tumors, and a phase Ib study of oral CYH33 monotherapy focused on several specific tumors. […] The phase Ia study included dose-escalation stage and dose-expansion stage. […] The secondary outcomes also included evaluation of changes in PD biomarkers in response to CYH33 treatment (including proteomics of blood specimens at baseline and during treatment, immunocyte subpopulation ratios and molecular markers, cell free DNA in peripheral blood, and blood glucose). However, in compliance with the local human genetic resource regulations and procedures, peripheral blood samples were not obtained for PD biomarker analysis, therefore, only fasting blood glucose was obtained and used as a PD biomarker for CYH33 treatment. The exploratory objective was the relationship between the efficacy of CYH33 treatment and tumor biomarker status.
An accelerated titration design (ATD) and an mTPI-2 design were adopted to guide toxicity monitoring and dose escalation. The target DLT rate was 30%, with the acceptable toxicity probability interval of (0.25, 0.35). For the first two preset doses of 1 mg and 5 mg CYH33 in the ATD phase, if there were no grade ≥2 TRAEs during the DLT observation period, 100% dose escalation was allowed in the subsequent dose group. After entering the mTPI-2 phase, the SMC guidance was followed to determine the dose level, dosing frequency, and number of subjects in the next dose group, based on the previously obtained safety and PK data for that dose group. If necessary, it was permitted to add an additional dose level between two explored dose levels for further investigation.
During the phase Ia study, the safe and probably effective dose will be delivered to the expansion cohort to further investigate the safety, tolerability and efficacy of this dose level, while the dose escalation study can be continued simultaneously. If necessary, it is permitted to insert a new dose level between two explored dose levels for exploration. The subjects to be enrolled in the expansion cohort are patients with advanced solid tumors with PIK3CA gene mutations. When there are two or more dose groups at dose expansion simultaneously, the allocation ratio of the number of subjects in each dose group should be as close as possible to the ratio of ORR in each dose group. In principle, when the cumulative ORR at a certain dose level is <10%, the number of subjects in this dose group will be determined by the SMC. A total of approximately 60 patients are expected to be enrolled in the whole phase Ia study.
The secondary endpoints included preliminary efficacy assessments based on ORR, PFS, DoR, DCR, and clinical benefit rate, assessed per RECIST 1.1,PK parameters for CYH33 and its metabolite I27, and changes in PD biomarkers in response to CYH33 treatment.

[1] = all patients 1–60 mg QD, n = 51

## COC(=O)Nc1cc(C(F)(F)F)c(-c2nc(N3CCOCC3)c3cc(CN4CCN(S(C)(=O)=O)CC4)cn3n2)cn1 [CYH33, methyl (5-(6-((4-(methylsulfonyl)piperazin-1-yl)methyl)−4-morpholinopyrrolo[2,1-f][1,2,4]triazin-2-yl)−4-(trifluoromethyl)pyridin-2-yl)carbamate]
1–20 mg QD, n = 10
  Generalized oedema, Grade ≥ 3 TRAE: 0 n (%)
  Grade ≥ 3 TRAEs in all patients: 2 (20.0) n (%)
  Hyperglycemia, Grade ≥ 3 TRAE: 2 (20.0) n (%)
  Hyperglycemia, all-grade TRAE: 7 (70.0) n (%)
  Hyponatremia, all-grade TRAE: 0 n (%)
  Mouth ulceration, Grade ≥ 3 TRAE: 0 n (%)
  Mouth ulceration, all-grade TRAE: 1 (10.0) n (%)
  Nausea, Grade ≥ 3 TRAE: 0 n (%)
  Nausea, all-grade TRAE: 3 (30.0) n (%)
  Peripheral edema, Grade ≥ 3 TRAE: 0 n (%)
  Peripheral edema, all-grade TRAE: 1 (10.0) n (%)
  Rash, Grade ≥ 3 TRAE: 0 n (%)
  Rash, all-grade TRAE: 1 (10.0) n (%)
  TRAEs leading to death: 0 n (%)
  TRAEs leading to dose discontinuation: 0 n (%)
  TRAEs leading to dose interruption: 2 (20.0) n (%)
  TRAEs leading to dose reduction: 1 (10.0) n (%)
  TRAEs occurring in ≥ 10% of patients: 7 (70.0) n (%)
  Treatment-related serious adverse events: 0 n (%)
  Vomiting, all-grade TRAE: 3 (30.0) n (%)
  Weight loss, all-grade TRAE: 1 (10.0) n (%)
  White blood cell count decreased, Grade ≥ 3 TRAE: 0 n (%)
QD
  recommended phase 2 dose (RP2D): 40 mg
[1]
  Blood glucose increased, Grade ≥ 3 TRAE: 1 (2.0) n (%)
  Decreased appetite, Grade ≥ 3 TRAE: 1 (2.0) n (%)
  Decreased appetite, all-grade TRAE: 21 (41.2) n (%)
  Diabetic ketosis, Grade ≥ 3 TRAE: 1 (2.0) n (%)
  Diarrhea, Grade ≥ 3 TRAE: 2 (3.9) n (%)
  Diarrhea, all-grade TRAE: 15 (29.4) n (%)
  Dizziness, Grade ≥ 3 TRAE: 1 (2.0) n (%)
  Electrocardiogram QT prolonged, Grade ≥ 3 TRAE: 1 (2.0) n (%)
  Face oedema, Grade ≥ 3 TRAE: 1 (2.0) n (%)
  Facial edema, all-grade TRAE: 8 (15.7) n (%)
  Fatigue, Grade ≥ 3 TRAE: 1 (2.0) n (%)
  Fatigue, all-grade TRAE: 9 (17.6) n (%)
  Generalized oedema, Grade ≥ 3 TRAE: 1 (2.0) n (%)
  Grade ≥ 3 TRAEs in all patients: 33 (64.7) n (%)
  Hyperglycemia, Grade ≥ 3 TRAE: 30 (58.8) n (%)
  Hyperglycemia, all-grade TRAE: 46 (90.2) n (%)
  Hyponatremia, all-grade TRAE: 6 (11.8) n (%)
  Mouth ulceration, Grade ≥ 3 TRAE: 1 (2.0) n (%)
  Mouth ulceration, all-grade TRAE: 6 (11.8) n (%)
  Nausea, Grade ≥ 3 TRAE: 1 (2.0) n (%)
  Nausea, all-grade TRAE: 19 (37.3) n (%)
  Peripheral edema, Grade ≥ 3 TRAE: 4 (7.8) n (%)
  Peripheral edema, all-grade TRAE: 13 (25.5) n (%)
  Rash, Grade ≥ 3 TRAE: 1 (2.0) n (%)
  Rash, all-grade TRAE: 9 (17.6) n (%)
  TRAEs leading to death: 0 n (%)
  TRAEs leading to dose discontinuation: 4 (7.8) n (%)
  TRAEs leading to dose interruption: 36 (70.6) n (%)
  TRAEs leading to dose reduction: 6 (11.8) n (%)
  TRAEs occurring in ≥ 10% of patients: 47 (92.2) n (%)
  Treatment-related serious adverse events: 6 (11.8) n (%)
  Vomiting, all-grade TRAE: 13 (25.5) n (%)
  Weight loss, all-grade TRAE: 16 (31.4) n (%)
  White blood cell count decreased, Grade ≥ 3 TRAE: 1 (2.0) n (%)
All patients, n = 1 each
  serious AEs nausea, vomiting, abdominal pain, dyspnea, hyperglycemia, pyrexia (each): 2.0%
All patients, n = 1 for each
  dose reduction due to peripheral edema, weight loss, mouth ulceration, prolonged electrocardiogram QT (each): 2.0%
All patients, n = 2
  dose reduction due to fatigue: 4.0%
All patients, n = 32 of 51
  hyperglycemia leading to dose interruption: 62.7%
All patients, n = 36 of 51
  patients with dose interruptions due to TRAEs: 70.6%
All patients, n = 51
  Decreased appetite, all-grade TRAE: 41.2%
  Diarrhea, all-grade TRAE: 29.4%
  Facial edema, all-grade TRAE: 15.7%
  Fatigue, all-grade TRAE: 17.6%
  Hyperglycemia, Grade ≥ 3 TRAE: 58.8%
  Hyperglycemia, TRAE at any grade: 90.2%
  Hyponatremia, all-grade TRAE: 11.8%
  Mouth ulceration, all-grade TRAE: 11.8%
  Nausea, all-grade TRAE: 37.3%
  Peripheral edema, all-grade TRAE: 25.5%
  Rash, all-grade TRAE: 17.6%
  Vomiting, all-grade TRAE: 25.5%
  Weight loss, all-grade TRAE: 31.4%
  incidences of all other grade ≥3 TRAEs: < 5%
  treatment-related deaths: No treatment-related deaths
All patients, n = 51 (four patients)
  Peripheral edema, grade 3 TRAE: 7.8%
All patients, six of 51
  patients with dose reductions due to TRAEs: 11.8%
  patients with treatment-associated serious AEs: 11.8%
All patients, three of 51
  patients who permanently discontinued CYH33 due to DLTs: 5.9%
Once daily, single agent, dose-escalation stage (mTPI-2)
  maximum tolerated dose (MTD): 40 mg
